Reference: patent US4451468A, “Acidiferous 17-normal-pentyl sparteine tartaric and fumaric acid salts pharmaceutical compositions thereof” (Kali-Chemie Pharma GmbH, priority 1979, dated 1984)
Values after ≈ are worked out from the molar mass of the structure shown. Where a name gives a salt, the structure may show the parent alone.

Legend:
[1] = hygroscopicity of crystalline salts; type: physicochemical
[2] = system: isolated auricle of guinea pigs; experiment: measurement in the isolated auricle (functional refractory period and contraction force), modified method of Govier; conditions: Cavia porcellus, on the average; for EC (125% of initial value): read-out: FRP: concentration at which the functional refractory period is extended to 125% of the initial values; for IC25: read-out: Force: concentration at which the contraction force is reduced to 75% of the initial values
Protocol: These values were determined by measurements in the isolated auricle of guinea pigs by the method (modified) of Govier, as described by Govier in J. Pharmacol. exp.

mice = experiment: LD50 toxicity measurement on mice, i.p., eight days after a single application; type: in vivo; conditions: calculated by method of Litchfield
Protocol: The LD50, i.p. values (μmole/1) were determined by toxicity measurements on mice, eight days after a single application. The LD50 values were calculated by the method of J. P. Litchfield et al., J. Pharmacol. exp. Ther. 96, 99 (1949).

[3] = solubility in water at 22° C.; type: physicochemical
[4] = stability tests (storage at 55° C.; exposure to light) with thin layer chromatography; type: physicochemical; conditions: salts
Protocol: In stability tests, no dissociation was found in thin layer chromatographic investigations. One test included storage for one month at 55° C. and as a second test utilized exposure to light (30 hours, rapid light exposure instrument "SUNTEST," Heraeus Co.).

humans = conditions: application to humans; cited from earlier work

| SMILES | hygroscopicity [1] | EC (125% of initial value) [2] [µM] | IC25 [2] [µM] | LD50 i.p. (mice) [μmole/1] | solubility [3] [mg/mL] | stability [4] | toxicity in humans (humans) |
| --- | --- | --- | --- | --- | --- | --- | --- |
| CCCCCC1C2CC(CN3CCCCC23)C2CCCCN21 (stereo not drawn) [sulfate of 17-β-n-pentyl sparteine] | extremely hydroscopic |  |  |  |  |  |  |
| C1CCN2C[C@@H]3C[C@@H](CN4CCCC[C@@H]34)[C@H]2C1 [Sparteine Sulfate, sparteine sulfate] |  | 33.9 | 959 | 202 |  |  |  |
| CCCCCC1C2CC(CN3CCCCC23)C2CCCCN21 (stereo not drawn) [hydrochloride of 17-β-n-pentyl sparteine] | extremely hydroscopic |  |  |  |  |  |  |
| CCCCCC1C2CC(CN3CCCCC23)C2CCCCN21 (single isomer, unassigned) [acidiferous 17-β-n-pentyl sparteine-L(+) tartrate] |  | 9.1 | 22.1 | 262 | > 1000 |  |  |
| CCCCCC1C2CC(CN3CCCCC23)C2CCCCN21 (stereo not drawn) [Pentylsparteine diperchlorate, perchlorate of 17-β-n-pentyl sparteine] |  | 7.7 | 19.2 | 283 | 20 (≈ 65.7 mM) | stable salt | leukopenia, agranulocytosis and aplastic anemia |
| CCCCCC1C2CC(CN3CCCCC23)C2CCCCN21 (stereo not shown) [Example 11] | very rapidly dissolved |  |  |  |  |  |  |
